Test results as given in the NIST ThermoML archive (doi:10.1016/j.jct.2015.12.021).
± gives the expanded uncertainty stated by the source.

Conditions: Liquid, Vibrating wire viscometry

Cc1ccccc1 [toluene]
viscosity [mPa·s]
Conditions	293.15 K	298.15 K	313.15 K	323.15 K	333.15 K	348.15 K	353.15 K	373.15 K
100 kPa	0.5907 ± 0.01	0.5555 ± 0.01	0.469 ± 0.0088	0.4214 ± 0.0081	0.3804 ± 0.0075	0.3302 ± 0.0068	0.3163 ± 0.0067	0.2667 ± 0.006
1000 kPa	0.5928 ± 0.01	0.5603 ± 0.01	0.4746 ± 0.0088	0.4238 ± 0.0081	0.3856 ± 0.0076	0.3361 ± 0.0069	0.3177 ± 0.0067	0.2671 ± 0.006
5000 kPa	0.6152 ± 0.011	0.5772 ± 0.01	0.4885 ± 0.009	0.4385 ± 0.0083	0.3986 ± 0.0078	0.3457 ± 0.007	0.3319 ± 0.0069	0.2782 ± 0.0062
10000 kPa	0.6387 ± 0.011	0.6006 ± 0.011	0.5046 ± 0.0093	0.4551 ± 0.0086	0.4153 ± 0.008	0.3588 ± 0.0072	0.3449 ± 0.007	0.2893 ± 0.0063
20000 kPa	0.6881 ± 0.012	0.6478 ± 0.011	0.5496 ± 0.0099	0.4877 ± 0.009	0.4495 ± 0.0085	0.3876 ± 0.0076	0.3701 ± 0.0074	0.315 ± 0.0066
30000 kPa	0.7354 ± 0.013	0.692 ± 0.012	0.5914 ± 0.01	0.5293 ± 0.0096	0.4794 ± 0.0089	0.418 ± 0.008	0.4006 ± 0.0078	0.3401 ± 0.007
40000 kPa	0.7913 ± 0.013	0.7442 ± 0.013	0.6239 ± 0.011	0.565 ± 0.01	0.5135 ± 0.0094	0.4485 ± 0.0085	0.4291 ± 0.0082	0.3643 ± 0.0073
50000 kPa	0.8532 ± 0.014	0.7983 ± 0.014	0.6704 ± 0.012	0.6021 ± 0.011	0.5485 ± 0.0099	0.4795 ± 0.0089	0.462 ± 0.0087	0.3876 ± 0.0076
60000 kPa	0.908 ± 0.015	0.8463 ± 0.014	0.7133 ± 0.012	0.6377 ± 0.011	0.5835 ± 0.01	0.5089 ± 0.0093	0.4919 ± 0.0091	0.4138 ± 0.008
70000 kPa	0.9632 ± 0.016	0.9027 ± 0.015	0.7572 ± 0.013	0.6789 ± 0.012	0.6187 ± 0.011	0.5441 ± 0.0098	0.5176 ± 0.0095	0.4372 ± 0.0083
80000 kPa	1.022 ± 0.017	0.9625 ± 0.016	0.8098 ± 0.014	0.7322 ± 0.013	0.6579 ± 0.011	0.5721 ± 0.01	0.5478 ± 0.0099	0.4649 ± 0.0087
100000 kPa	1.149 ± 0.019	1.081 ± 0.018	0.9082 ± 0.015	0.809 ± 0.014	0.7353 ± 0.013	0.6407 ± 0.011	0.6113 ± 0.011	0.5193 ± 0.0095
120000 kPa	1.287 ± 0.021	1.211 ± 0.02	1.009 ± 0.017	0.9034 ± 0.015	0.8176 ± 0.014	0.7088 ± 0.012	0.6825 ± 0.012	–
140000 kPa	1.456 ± 0.024	1.349 ± 0.022	1.128 ± 0.019	1.004 ± 0.017	0.9111 ± 0.015	0.7836 ± 0.013	0.755 ± 0.013	–
